Experimental data: PubChem BioAssay (NCI)
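Exposure lasted 48 hours, with cells grown in 96-well plates and compounds tested at five concentrations. At the TGI there is no net growth.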

Experiments:
Test in all cases: growth of human tumour cells (NCI), 48 h
[1] = system: NCI-H460 lung
[2] = system: OVCAR-8 ovarian
[3] = system: T-47D breast
[4] = system: HCT-116 colon
[5] = system: COLO 205 colon
[6] = system: DU-145 prostate
[7] = system: MALME-3M melanoma
[8] = system: UO-31 renal
[9] = system: HOP-62 NSCLC
[10] = system: U251 CNS
[11] = system: A498 renal
[12] = system: EKVX NSCLC
[13] = system: RPMI-8226 leukemia
[14] = system: NCI-H23 lung
[15] = system: KM12 colon
[16] = system: SF-295 CNS
[17] = system: MDA-MB-231 breast
[18] = system: SN12C renal
[19] = system: HS 578T breast
[20] = system: TK-10 renal
[21] = system: SF-268 CNS
[22] = system: M14 melanoma
[23] = system: HT29 colon
[24] = system: 786-0 renal
[25] = system: OVCAR-5 ovarian
[26] = system: SK-MEL-2 melanoma
[27] = system: ACHN renal
[28] = system: SNB-19 CNS
[29] = system: NCI-H226 lung
[30] = system: CCRF-CEM leukemia
[31] = system: OVCAR-4 ovarian
[32] = system: HOP-92 NSCLC
[33] = system: A549 NSCLC
[34] = system: SK-MEL-28 melanoma
[35] = system: SNB-75 CNS
[36] = system: UACC-62 melanoma
[37] = system: BT-549 breast
[38] = system: MOLT-4 leukemia
[39] = system: OVCAR-3 ovarian
[40] = system: NCI-H522 lung
[41] = system: IGROV1 ovarian
[42] = system: SK-OV-3 ovarian
[43] = system: HCT-15 colon
[44] = system: PC-3 prostate
[45] = system: NCI/ADR-RES ovarian
[46] = system: LOX IMVI melanoma
[47] = system: HL-60(TB) leukemia
[48] = system: RXF 393 renal
[49] = system: SW-620 colon
[50] = system: SF-539 CNS
[51] = system: MDA-MB-435
[52] = system: MDA-N
[53] = system: MCF7 breast
[54] = system: CAKI-1 renal
[55] = system: HCC-2998 colon
[56] = system: UACC-257 melanoma
[57] = system: SK-MEL-5 melanoma
[58] = system: K-562 leukemia

Measured: TGI

c1ccc(N=C2SC(c3ccccc3)(c3ccccc3)c3ccccc32)cc1
> 100 µM: all assays above
